Measurements taken from article PMC8231556, “Inhibiting Endothelial Cell Function in Normal and Tumor Angiogenesis Using BMP Type I Receptor Macrocyclic Kinase Inhibitors” (Cancers, 2021).

Columns and labels:
TGFBR2 = TGFBR2 (Homo sapiens, UniProt P37173); assay: radiometric protein kinase assay, affinity (Kd); type: binding
Description: The binding interaction profile of the compounds for ALK1–6, ACVR2A, ACVR2B, and TGFβR2 was determined by using radiometric protein kinase assay. For each compound, ten different concentrations (from 3 × 10^−6 M to 9 × 10^−11 M) were used in the protein kinase reaction.

EA.hy926 cells [1] = assay: MTS assay; type: cell-based, human; settings: 0.5 μM, day 1, 2 and 3
Description: The MTS assay was used to measure the metabolic activity and viability of the cells. Around 5 × 10^3 EA.hy926 cells were seeded and cultured overnight in a 96-well plate and then cultured in the normal growth medium, which contained the indicated compounds and ligands. The MTS tetrazolium was measured according to the manufacturer’s protocol using an MTS Assay Kit (G3580, Promega). In brief, after exposing the cells in set conditions for 1, 2, and 3 days, 20 µL of MTS reagent was added to 100 μL cell growth medium per well and incubated for 4 h at 37 °C. Thereafter, absorbance at 490 nm was measured using a PerkinElmer […]. All the experiments were repeated at least three times, and representative experiments are shown.

EA.hy926 cells [2] = assay: Proliferation assay (IncuCyte confluence); type: cell-based, human; settings: 0.5 µM, 3 days
Description: Around 4 × 10^3 EA.hy926 cells per well were seeded in a 96-well microplate Essen ImageLock™ in 200 µL of culture medium containing the indicated concentrations of compounds and ligands, and the plate was directly inserted into the IncuCyte ZOOM instrument for scanning. Images of each well were acquired every 4 h for 3 days. The real-time cell confluence in each well was analyzed after normalizing to the initial cell density. All the experiments were repeated at least three times, and representative results are shown.

EA.hy926 cells [3] = assay: Scratch wound migration assay; type: cell-based, human; settings: 0.5 µM, 24 h; for effect on FBS-induced EC migration: 1% FBS; for effect on BMP9-induced EC migration: BMP9 1 ng/mL; for effect on VEGF-induced EC migration: VEGF 15 ng/mL
Description: Approximately 5 × 10^4 EA.hy926 cells/well were seeded in a 96-well microplate Essen ImageLock™ (4379, Essen Bioscience, Ann Arbor, MI, USA) and cultured overnight. Then homogeneous 700–800 micron-wide scratch wounds were made using a WoundMaker™ device (4563, Essen Bioscience, Ann Arbor, MI, USA) containing 96 pins. The compounds and/or ligands were added to each well in 100 µL of fresh serum-free medium. Each group contained 6 replicates. Real-time pictures were acquired every 4 h by the IncuCyte ZOOM (Essen Bioscience) to track the wound closure. The wound density was analyzed using the software package provided by the manufacturer and normalized to the wound width at the start of the experiment. All the experiments were repeated at least three times, and representative results are shown.

[4] = test system: Tg (fli:EGFP) zebrafish embryos; assay: Zebrafish DLAV and ISV formation; type: in vivo; settings: 0.5 µM, 20 h
Description: The Tg (fli:EGFP) zebrafish embryos were collected, and embryos with the same development stage (around 2.5 hpf) were selected. The eggs were randomly separated into different groups, and each group contained at least 20 embryos. The embryos were exposed to egg water containing 0.5 µM compounds or vehicle control (equal amount of DMSO) for 20 h at 28 °C. Next, all the eggs were dechorionated under the microscope using tweezers. The zebrafish embryos were fixed in 4% paraformaldehyde (PFA) for 2 h at room temperature and stored at 4 °C in phosphate-buffered saline (PBS). The entire zebrafish embryo was imaged with an Andor Dragonfly 500 spinning disk confocal (Oxford Instruments, Abingdon, UK) using a 488 nm laser. Five embryos in each group were randomly selected and scanned. The zebrafish vasculature formation of DLAV and ISV after 20 h treatment with compounds was quantified using ImageJ as previously described. The experiments were repeated twice with similar results.

ACVR2B = ACVR2B (Homo sapiens, UniProt Q13705); assay: radiometric protein kinase assay, affinity (Kd); type: binding
ACVR2B, sequence (Q13705 19-512): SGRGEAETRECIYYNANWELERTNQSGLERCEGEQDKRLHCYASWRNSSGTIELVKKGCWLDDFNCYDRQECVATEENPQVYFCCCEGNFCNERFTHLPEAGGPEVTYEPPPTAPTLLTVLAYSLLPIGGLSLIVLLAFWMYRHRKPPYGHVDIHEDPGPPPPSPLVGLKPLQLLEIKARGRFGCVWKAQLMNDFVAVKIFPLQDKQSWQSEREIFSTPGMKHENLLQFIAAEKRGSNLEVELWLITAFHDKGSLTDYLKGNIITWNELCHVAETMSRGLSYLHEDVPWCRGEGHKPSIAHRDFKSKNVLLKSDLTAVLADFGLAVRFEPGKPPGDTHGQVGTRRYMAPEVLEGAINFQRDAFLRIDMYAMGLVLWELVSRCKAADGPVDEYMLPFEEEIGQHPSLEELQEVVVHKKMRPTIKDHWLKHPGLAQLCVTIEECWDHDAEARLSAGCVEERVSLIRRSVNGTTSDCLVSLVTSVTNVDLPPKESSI
Description: (§1) The binding interaction profile of the compounds for ALK1–6, ACVR2A, ACVR2B, and TGFβR2 was determined by using radiometric protein kinase assay. For each compound, ten different concentrations (from 3 × 10^−6 M to 9 × 10^−11 M) were used in the protein kinase reaction. The inhibitor binding constants (Kd values) were calculated based on the 10 corresponding residual activities for each compound using Prism 5.04 (Graphpad, San Diego, CA, USA) according to the following formula:Kd = ([K][I]/[C]) where [K] = molar concentration of non-inhibitor bound kinase at equilibrium, [I] = molar concentration of the free inhibitor at equilibrium, [C] = molar concentration of kinase-inhibitor complex at equilibrium.

ALK2 = ALK2 (Homo sapiens, UniProt Q04771); assay: radiometric protein kinase assay, affinity (Kd); type: binding
Description: as §1

ALK3 = ALK3 (Homo sapiens, UniProt P36894); assay: radiometric protein kinase assay, affinity (Kd); type: binding
Description: as §1

ALK4 = ALK4 (Homo sapiens, UniProt P36896); assay: radiometric protein kinase assay, affinity (Kd); type: binding
ALK4, sequence (P36896 24-505): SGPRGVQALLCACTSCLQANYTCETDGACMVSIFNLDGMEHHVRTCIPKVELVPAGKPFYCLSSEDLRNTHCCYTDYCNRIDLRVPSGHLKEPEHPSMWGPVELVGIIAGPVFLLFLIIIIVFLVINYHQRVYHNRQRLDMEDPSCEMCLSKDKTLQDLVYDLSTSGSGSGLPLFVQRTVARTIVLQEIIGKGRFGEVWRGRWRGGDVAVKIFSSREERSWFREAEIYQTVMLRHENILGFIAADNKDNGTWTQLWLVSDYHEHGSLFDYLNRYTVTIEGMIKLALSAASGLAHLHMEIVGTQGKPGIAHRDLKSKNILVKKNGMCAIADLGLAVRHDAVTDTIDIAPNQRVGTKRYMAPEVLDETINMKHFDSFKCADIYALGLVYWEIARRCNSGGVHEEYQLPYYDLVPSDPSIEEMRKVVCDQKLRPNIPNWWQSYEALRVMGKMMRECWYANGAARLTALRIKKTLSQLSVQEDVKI
Description: as §1

ALK5 = ALK5 (Homo sapiens, UniProt P36897); assay: radiometric protein kinase assay, affinity (Kd); type: binding
Description: as §1

BRAF = molecular target: T1, BRAF (Homo sapiens, UniProt P15056); assay: radiometric kinase profiling (33 PanQinase); type: biochemical; settings: read-out: Inhibitory effect (%) BRAF
T1 construct: purchased Proqinase, Germany
T1 sequence (P15056 whole entry): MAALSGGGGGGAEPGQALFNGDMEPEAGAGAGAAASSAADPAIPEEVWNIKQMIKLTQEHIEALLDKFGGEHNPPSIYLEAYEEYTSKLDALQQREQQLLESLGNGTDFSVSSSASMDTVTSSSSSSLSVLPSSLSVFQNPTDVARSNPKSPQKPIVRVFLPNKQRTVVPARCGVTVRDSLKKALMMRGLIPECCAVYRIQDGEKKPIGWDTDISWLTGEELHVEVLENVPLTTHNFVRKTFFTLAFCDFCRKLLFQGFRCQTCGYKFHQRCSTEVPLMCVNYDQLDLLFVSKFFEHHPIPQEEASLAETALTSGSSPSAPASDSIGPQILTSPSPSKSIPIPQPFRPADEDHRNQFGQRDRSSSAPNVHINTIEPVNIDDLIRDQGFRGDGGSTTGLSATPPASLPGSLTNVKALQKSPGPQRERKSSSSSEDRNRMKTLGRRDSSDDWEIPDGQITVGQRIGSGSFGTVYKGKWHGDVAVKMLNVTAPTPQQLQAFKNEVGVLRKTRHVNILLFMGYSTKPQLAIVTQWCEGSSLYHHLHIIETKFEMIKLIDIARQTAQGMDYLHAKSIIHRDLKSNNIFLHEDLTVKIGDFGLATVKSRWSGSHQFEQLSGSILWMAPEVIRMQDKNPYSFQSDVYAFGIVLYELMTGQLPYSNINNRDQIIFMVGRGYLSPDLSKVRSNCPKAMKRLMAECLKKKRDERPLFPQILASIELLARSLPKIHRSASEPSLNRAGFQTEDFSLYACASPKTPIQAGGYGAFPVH
Summary of the method: (§2)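 Enzyme/substrate mixes were incubated with [γ-33P]-ATP and compound (added as a 0.1 μM solution in 10% DMSO) at 30 °C for 60 min, then stopped with H3PO4 and washed with NaCl. 33P incorporation was scintillation-counted, and residual activity (%) was normalized to untreated control and background.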

FGFR3 = molecular target: T2, FGFR3 (Homo sapiens, UniProt P22607); assay: radiometric kinase profiling (33 PanQinase); type: biochemical; settings: read-out: Inhibitory effect (%) FGFR3
T2 construct: purchased ProQinase (33PanQinase Activity Assay)
T2 sequence (P22607 23-806): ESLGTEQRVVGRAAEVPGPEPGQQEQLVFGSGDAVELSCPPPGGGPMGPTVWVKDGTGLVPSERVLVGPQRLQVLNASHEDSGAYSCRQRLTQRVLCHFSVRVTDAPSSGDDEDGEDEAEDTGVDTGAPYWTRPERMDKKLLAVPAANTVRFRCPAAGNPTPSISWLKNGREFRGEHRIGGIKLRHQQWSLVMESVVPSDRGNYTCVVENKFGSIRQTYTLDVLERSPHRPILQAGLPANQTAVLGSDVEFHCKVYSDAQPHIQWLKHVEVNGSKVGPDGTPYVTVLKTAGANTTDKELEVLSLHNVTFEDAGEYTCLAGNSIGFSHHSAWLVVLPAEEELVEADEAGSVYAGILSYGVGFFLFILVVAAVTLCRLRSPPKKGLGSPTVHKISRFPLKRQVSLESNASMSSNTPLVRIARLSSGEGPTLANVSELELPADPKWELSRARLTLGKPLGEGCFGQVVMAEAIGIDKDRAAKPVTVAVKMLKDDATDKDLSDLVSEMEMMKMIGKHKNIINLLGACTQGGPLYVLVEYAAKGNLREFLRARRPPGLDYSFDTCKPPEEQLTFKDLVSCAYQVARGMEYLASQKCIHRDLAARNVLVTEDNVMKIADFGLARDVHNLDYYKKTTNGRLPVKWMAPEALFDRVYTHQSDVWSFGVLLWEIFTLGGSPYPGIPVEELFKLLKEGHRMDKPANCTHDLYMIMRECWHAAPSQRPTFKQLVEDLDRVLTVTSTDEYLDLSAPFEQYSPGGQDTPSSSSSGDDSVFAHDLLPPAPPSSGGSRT
Summary of the method: as §2

FLT3 = molecular target: T3, FLT3 (Homo sapiens, UniProt P36888); assay: radiometric kinase profiling (33 PanQinase); type: biochemical; settings: read-out: Inhibitory effect (%) FLT3
T3 construct: purchased ProQinase (33PanQinase Activity Assay)
T3 sequence (P36888 27-993): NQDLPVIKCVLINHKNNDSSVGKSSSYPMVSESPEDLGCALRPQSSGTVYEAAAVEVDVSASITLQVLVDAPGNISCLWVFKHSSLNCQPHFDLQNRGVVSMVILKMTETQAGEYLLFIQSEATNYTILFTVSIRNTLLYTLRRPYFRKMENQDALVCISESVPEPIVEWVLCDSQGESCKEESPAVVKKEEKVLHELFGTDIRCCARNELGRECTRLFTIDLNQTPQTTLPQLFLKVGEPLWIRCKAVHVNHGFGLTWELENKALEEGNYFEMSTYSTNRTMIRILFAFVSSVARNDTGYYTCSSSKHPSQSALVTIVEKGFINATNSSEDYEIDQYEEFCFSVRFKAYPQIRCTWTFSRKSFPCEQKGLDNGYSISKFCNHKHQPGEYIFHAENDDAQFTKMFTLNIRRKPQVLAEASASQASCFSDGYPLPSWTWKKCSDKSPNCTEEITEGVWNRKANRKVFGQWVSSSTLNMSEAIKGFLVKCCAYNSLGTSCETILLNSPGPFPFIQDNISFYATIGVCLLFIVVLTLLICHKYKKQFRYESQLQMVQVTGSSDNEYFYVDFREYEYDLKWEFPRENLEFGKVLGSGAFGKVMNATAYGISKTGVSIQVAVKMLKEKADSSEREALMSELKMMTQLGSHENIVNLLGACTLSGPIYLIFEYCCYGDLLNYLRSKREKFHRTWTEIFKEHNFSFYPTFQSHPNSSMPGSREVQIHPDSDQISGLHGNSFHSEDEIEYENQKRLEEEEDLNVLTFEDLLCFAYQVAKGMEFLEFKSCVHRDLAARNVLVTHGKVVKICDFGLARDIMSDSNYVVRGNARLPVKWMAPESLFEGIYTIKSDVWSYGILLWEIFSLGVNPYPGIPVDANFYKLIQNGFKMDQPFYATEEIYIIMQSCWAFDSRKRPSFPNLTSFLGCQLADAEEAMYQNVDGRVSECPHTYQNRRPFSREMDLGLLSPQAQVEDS
Summary of the method: as §2

MAP4K5 = molecular target: T4, MAP4K5 (Homo sapiens, UniProt Q9Y4K4); assay: radiometric kinase profiling (33 PanQinase); type: biochemical; settings: read-out: Inhibitory effect (%) MAP4K5
T4 construct: purchased ProQinase (33PanQinase Activity Assay)
T4 sequence (Q9Y4K4 whole entry): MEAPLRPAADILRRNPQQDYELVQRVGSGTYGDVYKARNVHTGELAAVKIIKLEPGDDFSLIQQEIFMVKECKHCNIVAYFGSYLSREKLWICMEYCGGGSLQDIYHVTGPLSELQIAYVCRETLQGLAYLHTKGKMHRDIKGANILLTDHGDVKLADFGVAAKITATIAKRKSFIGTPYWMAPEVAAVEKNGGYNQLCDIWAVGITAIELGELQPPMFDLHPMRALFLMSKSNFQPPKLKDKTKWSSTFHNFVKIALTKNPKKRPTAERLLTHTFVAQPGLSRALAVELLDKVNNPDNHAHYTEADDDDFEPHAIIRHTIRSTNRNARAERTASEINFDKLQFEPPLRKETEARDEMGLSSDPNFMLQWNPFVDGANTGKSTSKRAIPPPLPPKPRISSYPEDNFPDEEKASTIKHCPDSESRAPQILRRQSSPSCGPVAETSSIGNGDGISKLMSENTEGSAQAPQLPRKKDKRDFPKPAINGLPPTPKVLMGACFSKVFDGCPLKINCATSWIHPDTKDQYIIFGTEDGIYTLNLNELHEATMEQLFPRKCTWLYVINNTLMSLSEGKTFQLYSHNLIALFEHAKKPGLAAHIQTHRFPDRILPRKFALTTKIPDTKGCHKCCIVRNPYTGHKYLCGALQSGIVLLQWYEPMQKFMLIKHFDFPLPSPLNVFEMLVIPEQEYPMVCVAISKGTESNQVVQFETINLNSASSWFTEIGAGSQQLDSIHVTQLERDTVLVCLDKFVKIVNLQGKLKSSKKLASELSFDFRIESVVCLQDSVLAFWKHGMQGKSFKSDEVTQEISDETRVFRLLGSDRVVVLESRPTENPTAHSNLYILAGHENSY
Summary of the method: as §2

TGFBR2, sequence (P37173 23-567): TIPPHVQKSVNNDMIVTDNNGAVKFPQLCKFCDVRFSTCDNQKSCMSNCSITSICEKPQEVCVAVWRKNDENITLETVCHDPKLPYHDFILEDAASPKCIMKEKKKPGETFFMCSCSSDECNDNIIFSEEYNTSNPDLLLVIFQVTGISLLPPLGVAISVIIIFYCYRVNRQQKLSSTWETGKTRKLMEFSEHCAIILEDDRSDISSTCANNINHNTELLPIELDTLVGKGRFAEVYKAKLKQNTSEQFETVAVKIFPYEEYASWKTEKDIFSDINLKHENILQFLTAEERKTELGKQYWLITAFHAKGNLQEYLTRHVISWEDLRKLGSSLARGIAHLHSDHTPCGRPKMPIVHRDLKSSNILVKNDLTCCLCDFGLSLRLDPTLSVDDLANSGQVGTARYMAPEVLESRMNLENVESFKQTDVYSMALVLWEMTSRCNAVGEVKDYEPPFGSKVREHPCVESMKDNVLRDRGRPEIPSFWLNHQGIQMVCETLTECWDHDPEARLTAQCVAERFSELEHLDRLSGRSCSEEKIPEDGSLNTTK

For `c1ccc2c(-c3cnn4cc(-c5ccc(N6CCNCC6)cc5)cnc34)ccnc2c1` [LDN-193189, reference compound], the Kd (TGFBR2) was 16 nM, the “effect on EA.hy926 cell viability (MTS)” value (EA.hy926 cells [1]) was “markedly attenuated” and the “effect on EC proliferation (real-time confluence)” value (“effect on EC proliferation” below) (EA.hy926 cells [2]) was “strongly inhibited”. The “effect on FBS-induced EC migration” value (EA.hy926 cells [3]) was “did not affect”, the “effect on BMP9-induced EC migration” value (EA.hy926 cells [3]) was “significantly inhibited” and the “effect on VEGF-induced EC migration” value (EA.hy926 cells [3]) was “no inhibitory effect”. For the same molecule, the “effect on DLAV and ISV formation (images)” value (“effect … (images)” below) [4] was “did not exhibit apparent defects” and the “effect on total vessel length and number of junctions (DLAV and ISV, quantified)” value (“effect on total vessel length and number” for short) [4] was “showed no effects”.

`CNC(=O)c1ccccc1Sc1ccc2c(/C=C/c3ccccn3)n[nH]c2c1` [Axitinib, reference compound] was tested, and the “effect on EA.hy926 cell viability (MTS)” value (EA.hy926 cells [1]) was “no significant effects”, the “effect … (images)” value [4] was “strong defects in both DLAV and ISV formation” and the “effect on total vessel length and number” value [4] was “strongly inhibited”.

Molecule `CN1CCC(=O)NCCNc2ccn3ncc(c3n2)-c2cccc(c2)C1` [OD29] has a Kd (TGFBR2) of 76 nM, a Kd (ACVR2B) of 558 nM and a Kd (ALK2) of 10 nM. The Kd (ALK3) was 1010 nM, the Kd (ALK4) was 652 nM and the Kd (ALK5) was 1010 nM. For the same molecule, the “effect on EA.hy926 cell viability (MTS)” value (EA.hy926 cells [1]) was “no significant effects”, the “effect on EC proliferation” value (EA.hy926 cells [2]) was “LDN-193189 strongly inhibited ECs proliferation, unlike OD16 and OD29” and the “effect on FBS-induced EC migration” value (EA.hy926 cells [3]) was “effective in suppressing”. For the same molecule, the “effect on BMP9-induced EC migration” value (EA.hy926 cells [3]) was “significantly inhibited”, the “effect on VEGF-induced EC migration” value (EA.hy926 cells [3]) was “antagonized” and the “effect … (images)” value [4] was “strong negative impact”. The “effect on total vessel length and number” value [4] was “significantly inhibited”, the inhibition at 0.1 µM (BRAF) was 5.1% and the inhibition at 0.1 µM (FGFR3) was 49.5%. The inhibition at 0.1 µM (FLT3) was -4.23% and the inhibition at 0.1 µM (MAP4K5) was 19.1%.

`CN1CCc2cccc(c2)Nc2nccc(n2)N2CCCc3cc(ccc32)C1` [OD16] gave a Kd (TGFBR2) of 380 nM, a Kd (ACVR2B) of 220 nM and a Kd (ALK2) of 17 nM. It also gave a Kd (ALK3) of 55 nM, a Kd (ALK4) of 270 nM and a Kd (ALK5) of 360 nM. For the same molecule, the “effect on EA.hy926 cell viability (MTS)” value (EA.hy926 cells [1]) was “no significant effects”, the “effect on EC proliferation” value (EA.hy926 cells [2]) was “LDN-193189 strongly inhibited ECs proliferation, unlike OD16 and OD29” and the “effect on FBS-induced EC migration” value (EA.hy926 cells [3]) was “did not affect”. For the same molecule, the “effect on BMP9-induced EC migration” value (EA.hy926 cells [3]) was “significantly inhibited”, the “effect on VEGF-induced EC migration” value (EA.hy926 cells [3]) was “antagonized” and the “effect on DLAV formation” value [4] was “strongly delayed”. For the same molecule, the “effect on ISV development” value [4] was “slightly inhibited”, the “effect on total vessel length and number” value [4] was “significantly inhibited” and the inhibition at 0.1 µM (BRAF) was 5.01%. The inhibition at 0.1 µM (FGFR3) was 14.8%, the inhibition at 0.1 µM (FLT3) was 4.56% and the inhibition at 0.1 µM (MAP4K5) was 14.6%.
